Source: ChEMBL document CHEMBL4842378, “An Enantiodefined Conformationally Constrained Fatty Acid Mimetic and Potent Inhibitor of ToxT” (ACS Med Chem Lett, 2021)
Calls of active or inactive are those of the source. No cut-off for these calls is given here.

Legend:
[1] = biological target: T1, TCP pilus virulence regulatory protein (Vibrio cholerae serotype O1 (strain ATCC 39541 / Classical Ogawa 395 /O395)) (UniProt A5F384); assay: Inhibition of ToxT in delattoxT tcpA-linked LacZ reporter gene harboring Vibrio cholerae at 500 nM measured after 3.5 hrs by beta-galactosidase assay relative to control
T1 sequence (whole entry): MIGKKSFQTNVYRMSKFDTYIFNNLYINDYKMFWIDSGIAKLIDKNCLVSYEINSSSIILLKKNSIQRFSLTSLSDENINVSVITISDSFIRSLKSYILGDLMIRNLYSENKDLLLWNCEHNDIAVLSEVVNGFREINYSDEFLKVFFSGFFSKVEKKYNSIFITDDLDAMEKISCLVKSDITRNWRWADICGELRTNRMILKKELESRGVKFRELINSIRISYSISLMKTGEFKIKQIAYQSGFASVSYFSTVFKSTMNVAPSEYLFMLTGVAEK

[2] = biological target: T1, TCP pilus virulence regulatory protein (Vibrio cholerae serotype O1 (strain ATCC 39541 / Classical Ogawa 395 /O395)); assay: Inhibition of wild type ToxT in Vibrio cholerae El Tor strain C6706 at 500 nM measured after 3.5 hrs by beta-galactosidase assay relative to control
[3] = biological target: T1, TCP pilus virulence regulatory protein (Vibrio cholerae serotype O1 (strain ATCC 39541 / Classical Ogawa 395 /O395)); assay: Inhibition of ToxT in Vibrio cholerae at upto 5 uM measured after 3.5 hrs by beta-galactosidase assay relative to control; conditions: dose microM <=5, time 3.5 hrs

Row | Compound | inhibition [1] [%] | inhibition [2] | inhibition [3] [%]
1 | Cc1cccc2c1C(CCC(=O)O)CCC2 (racemic) | 80 | 45% | 
2 | O=C(O)CCCN1C(=O)c2cccc3cccc(c23)C1=O |  |  | 20
3 | CCCC1=C2CCC[C@@]2(C)CC[C@@H]1CCC(=O)O |  | 60% | 
4 | CCCC1=C2CCC[C@@]2(C)CC[C@@H]1CC/C=C/C(=O)O |  | Active | 
5 | CCCCC1=C2CCC[C@@]2(C)CC[C@@H]1CC/C=C/C(=O)O |  | 25% | 
6 | CCCCC1=C2CCC[C@]2(C)CC[C@H]1CCC(=O)O |  | 50% | 
7 | CCCCC1=C2CCC[C@@]2(C)CC[C@@H]1CCC(=O)O |  | 80% | 
